Experimental findings from patent US20060239999A1, “Preventive and/or therapeutic drugs for asthma” (priority 2002, published 2006) are described below.

The IC50 is the concentration that inhibits the measured activity by half. The low end stands for greater potency, the high end for weaker potency.

The target in one assay is T1, GPR4 (Homo sapiens, UniProt P46093).
T1 construct: expressed in transfected cells; host or cells: KJMGER8 (Namalwa KJM-1 human B-cell line stably expressing Gal4-ER), co-transfected with pAGal9-GPR4 and the CRE-luciferase reporter pACREpluc
The assay can be described thus: Antagonistic action on GPR4 (luciferase reporter in GPR4 assay cells induced by 17β-estradiol). In kind it is cell-based. As to conditions: 10 nmol/L 17β-estradiol, 6 hours, luciferase luminescence. On the procedure:
Cells for GPR4 assay prepared in Referential Example 61 (said assay cells express GPR4 by stimulation with 17β-estradiol) were seeded on white plates at the rate of 10^5 cells/well, and a solution where 17β-estradiol (manufactured by Sigma) was diluted with a medium so as to make 10 nmol/L in the reaction solution and test compounds were added to the plate and the mixture was incubated at 37° C. for 6 hours in a 5% CO2 incubator. After that, a Steady Glo Luciferase Assay System (manufactured by Promega) solution was added to stop the reaction and the amount of luminescence during one second was measured using a Top Count (Packard, Meriden, Conn., U.S.
Activity of the each of test compounds (antagonistic action) was expressed by an inhibition rate calculated on the basis of counts per second in the presence or absence of 17β-estradiol as shown by the following formula. IC50 value was calculated from the inhibition rate by a linear approximate analysis of the Logit-Log conversion method.
In the formula, A, B and C each have the following meaning, respectively.
A: counts per second when 17β-estradiol and the test compound were added
B: counts per second when neither 17β-estradiol nor the test compound was added
C: counts per second when only 17β-estradiol was added
Inhibition Rate (%) [1−{(A−B)/(C−B)}]×100
1 μg of mRNA derived from human lung (manufactured by Clontech) was used and a single-stranded cDNA was synthesized using a SUPERSCRIPT First-Stranded Synthesis System for RT-PCR (manufactured by Gibco). GPR4 cDNA was prepared by PCR using a solution (5 μl) where said single-stranded cDNA was diluted with water to an extent of 250-fold as a template and synthetic DNA having nucleotide sequences represented by SEQ ID NO: 7 and NO: 8 as a GPR4 gene-specific primer. Sequence of the GPR4 gene-specific primer was designed on the basis of sequence information of GPR4 gene (GenBank Accession No. U21051). With regard to an enzyme, PfuTurbo DNA Polymerase (manufactured by Stratagene) was used. With regard to a buffer for conducting the PCR, a buffer of 10-fold concentration attached to the enzyme was used. The PCR was conducted by treating at 95° C. for 5 minutes and conducting 30 cycles of reaction each comprising at 94° C. for 1 minute, at 60° C. for 1 minute and at 72° C. for 1 minute using a thermal cycler DNA engine (manufactured by MJ Research).
2 μg of plasmid pAGal9-GPR4 with inducible expression of GPR4 and 2 μg of reporter plasmid pACREpluc were co-transferred into 6×10^6 cell of KJMGER8 by the above-mentioned electroporation. The transformants were suspended in 8 ml of an RPMI 1640-ITPSG medium and cultured in a CO2 incubator at 37° C. for 24 hours. After the cultivation, blasticidin S (2.0 μg/ml), hygromycin B (300 μg/ml) and geneticin (500 μg/ml) were added and cultivation was carried-out for 14 days more, and stable transformants (called GPR4 assay cells) were obtained. The transformants were subcultured in an RPMI 1640-ITPSG medium containing blasticidin S (2.0 μg/ml), hygromycin B (300 μg/ml) and geneticin (500 μg/ml).
In general terms: In a reporter assay the amount or activity of a reporter protein is the signal.

For assay [1], the system named is BALB/c male mice. Nature of the assay: Suppressive effect on antigen-induced bronchoconstriction (airway resistance penh). In kind it is in vivo. To be noted: for AUC0-30min of the bronchoconstriction: ovalbumin-sensitized mice, mean value±standard error. On the procedure:
(§1) Suspention prepared by mixing of 50 μg of ovalbumin and 1 mg of aluminum hydroxide in a physiological saline solution (Otsuka Physiological Saline; manufactured by Otsuka. Pharmaceutical) was intraperitoneally administered to BALB/c male mice (7 weeks age) for two times with an interval of one week to sensitize and, after 14, 18 and 22 days from the final sensitization, 1% solution of ovalbumin in a physiological saline solution or a physiological saline solution (a negative control group) was inhaled for 30 minutes respectively to induce an antigen-antibody reaction. In the case of measurement of bronchoconstriction, compound 1 was suspended in a 0.5% aqueous solution of methylcellulose (solvent) and, 1 hour before inhalation of antigen after 14 days from the final sensitization 100 mg/kg of the suspention was orally administered or, 5 minutes before that, 30 mg/kg was intraperitoneally administered. In the case of measurement of airway hyperreactivity or eosinophil infiltration in airway, compound 1 was suspended as mentioned above and, after 14, 18 and 22 days from the final sensitization, 100 mg/kg of the suspention was orally administered 1 hour before and 6 hours after inhalation of each antigen. As a reference drug, prednisolone which is a steroid used for the treatment of asthma was orally administered at a dose of 30 mg/kg (as a solution being suspended in 0.5% aqueous solution of methylcellulose) once, 1 hour before inhalation of each antigen after 14, 18 and 22 days from the final sensitization. In a positive control group, the solvent was administered instead of a suspension of a test compound. (In the case of measurement of bronchoconstriction, the solvent was administered once, 1 hour before inhalation of antigen after 14 days from the final sensitization as for oral administration, or the solvent was administered once 30 minutes before inhalation of antigen after 14 days from the final sensitization as for intraperitoneal administration. In the case of measurement of airway hyperreactivity and eosinophil infiltration in airway, the solvent was administered 1 hour before and 6 hours after inhalation of each antigen after 14, 18 and 22 days from the final sensitization.)
(§2) With regard to the bronchoconstriction, airway resistance (penh) was evaluated by a measuring apparatus for respiration function of mice (BioSystems XA; Buxco Electronics, Inc., Sharon, Conn., U.S.A.) for 30 minutes from immediately after inhalation of antigen after 14 days from the final sensitization and evaluation was conducted by calculating the area under curve during the 30 minutes (AUC0-30 min). Further, after 24 hours from final inhalation of antigen, airway hyperreactivity and eosinophil infiltration in bronchoalveolar lavage fluid were evaluated.

The test system of assay [2] is BALB/c male mice. Nature of the assay: Suppressive effect on antigen-induced eosinophil infiltration in airway (bronchoalveolar lavage fluid). As to conditions: for Eosinophil numbers in bronchoalveolar lavage fluid: 24 hours after final antigen inhalation, compound 1 100 mg/kg orally 1 hour before and 6 hours after each antigen, prednisolone 30 mg/kg orally once before each antigen; for eosinophil numbers decreased as compared with the positive control group: compound 1 100 mg/kg orally, prednisolone 30 mg/kg orally. Type of assay: in vivo. On the procedure:
as §1, with “(In the case of measurement of bronchoconstriction, the solvent was administered once, 1 hour before inhalation of antigen after 14 days from the final sensitization as for oral administration, or the solvent was administered once 30 minutes before inhalation of antigen after 14 days from the final sensitization as for intraperitoneal administration. In the case of measurement of airway hyperreactivity and eosinophil infiltration in airway, the solvent was administered 1 hour before and 6 hours after inhalation of each antigen after 14, 18 and 22 days from the final sensitization.)” left out
as §2
(§3) With regard to eosinophil filtration, total cell numbers in the bronchoalveolar lavage fluid were measured by an automatic measuring apparatus for blood cell count (Celltac α MEK-6158; Nippon Koden, Tokyo), then the smears were prepared by Cytospin 3 (Shandon, Inc., Pittsburgh, Pa., U.S.A.) and evaluation was conducted by a morphological classification under a microscope. Eosinophil numbers were calculated by multiplying the total cell numbers by percentage of eosinophil cells. […]

The subject of assay [3] is BALB/c male mice. Nature of the assay: Suppressive effect on antigen-induced airway hyperreactivity (methacholine inhalation). In kind it is in vivo. As to conditions: for airway hyperreactivity suppressed as compared with the positive control group: compound 1 100 mg/kg orally, prednisolone 30 mg/kg orally; for AUC of airway hyperreactivity: methacholine 1.5 to 25 mg/ml, compound 1 100 mg/kg orally 1 hour before and 6 hours after each antigen, prednisolone 30 mg/kg orally once before each antigen, mean value±standard error. On the procedure: as §1, with “(In the case of measurement of bronchoconstriction, the solvent was administered once, 1 hour before inhalation of antigen after 14 days from the final sensitization as for oral administration, or the solvent was administered once 30 minutes before inhalation of antigen after 14 days from the final sensitization as for intraperitoneal administration. In the case of measurement of airway hyperreactivity and eosinophil infiltration in airway, the solvent was administered 1 hour before and 6 hours after inhalation of each antigen after 14, 18 and 22 days from the final sensitization.)” left out
as §2, §3

T1 sequence (P46093 whole entry, the tested form may be a part): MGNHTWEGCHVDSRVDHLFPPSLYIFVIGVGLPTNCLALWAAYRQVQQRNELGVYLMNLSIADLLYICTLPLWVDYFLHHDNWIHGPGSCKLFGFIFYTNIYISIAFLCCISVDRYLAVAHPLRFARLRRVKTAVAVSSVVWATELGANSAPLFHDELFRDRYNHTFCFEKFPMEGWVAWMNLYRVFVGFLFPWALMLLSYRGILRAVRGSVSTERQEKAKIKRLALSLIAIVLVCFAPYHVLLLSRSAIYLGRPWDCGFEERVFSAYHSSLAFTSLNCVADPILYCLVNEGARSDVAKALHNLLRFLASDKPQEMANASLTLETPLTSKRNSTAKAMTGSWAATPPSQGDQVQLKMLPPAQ

Turning to `CCc1nc2c(C)cc(C)nc2n1Cc1ccc2c(c1)CCc1cc(CN3CCN(C)CC3)ccc1N2` [Compound 1, 2-(2-Ethyl-5,7-dimethyl-3H-imidazo[4,5-b]pyridin-3-ylmethyl)-8-(4-methylpiperazin-1-ylmethyl)-10,11-dihydro-5H-dibenz[b,f]azepine], at GPR4, the half-maximal inhibitory concentration (IC50) is 4 nM. Further, the “bronchoconstriction suppressed as compared with the positive control group” value in the assay with BALB/c male mice [1] (30 mg/kg intraperitoneally) is reported as 105%. Moreover, the “bronchoconstriction suppressed as compared with the positive control group” value in the assay on BALB/c male mice [1] (100 mg/kg orally) was found to be 44%. Besides, the “AUC0-30min of the bronchoconstriction” value in the assay on BALB/c male mice [1] (30 mg/kg intraperitoneally before antigen inhalation) is reported as 14.60±0.46. The “AUC0-30min of the bronchoconstriction” value in the assay with BALB/c male mice [1] (100 mg/kg orally 1 hour before antigen inhalation) was found to be 16.85±0.84. In the assay on BALB/c male mice [2], the “Eosinophil numbers in bronchoalveolar lavage fluid” value is listed as 0.92±0.26 ×10^5 per mouse and the “eosinophil numbers decreased as compared with the positive control group” value is given as 67%. Further, in the assay with BALB/c male mice [3], the “airway hyperreactivity suppressed as compared with the positive control group” value amounted to 60% and the “AUC of airway hyperreactivity” value was found to be 243.23±48.7.

Consider `CCc1nc2c(C)cc(C)nc2n1Cc1ccc2c(c1)CCc1cc(CN3CC=CCC3)ccc1N2` [Compound 2, 2-(2-Ethyl-5,7-dimethyl-3H-imidazo[4,5-b]pyridin-3-ylmethyl)-8-(1,2,5,6-tetrahydropyridin-1-ylmethyl)-10,11-dihydro-5H-dibenz[b,f]azepine], for which inhibition on GPR4 was half-maximal at 3.2 nM (IC50).

`CCc1nc2c(C)cc(C)nc2n1Cc1ccc2c(c1)CCc1cc(CN3CCCC3)ccc1N2` [Compound 3, 2-(2-Ethyl-5,7-dimethyl-3H-imidazo[4,5-b]pyridin-3-ylmethyl)-8-(pyrrolidin-1-ylmethyl)-10,11-dihydro-5H-dibenz[b,f]azepine] displayed an IC50 against GPR4 of 2.3 nM.

Turning to `CCc1nc2c(C)cc(C)nc2n1Cc1ccc2c(c1)CCc1cc(CN3CCOCC3)ccc1N2` [Compound 4, 2-(2-Ethyl-5,7-dimethyl-3H-imidazo[4,5-b]pyridin-3-ylmethyl)-8-morpholinomethyl-10,11-dihydro-5H-dibenz[b,f]a zepine], the IC50 at GPR4 turned out to be 5.8 nM.

Take `CCc1nc2c(C)cc(C)nc2n1Cc1ccc2c(c1)CCc1cc(CN3CC(C)CC(C)C3)ccc1N2` (centres unmarked) [Compound 5]: on GPR4, the half-maximal inhibitory concentration (IC50) amounted to 14 nM.

For `C[C@]12C=CC(=O)C=C1CC[C@@H]1[C@@H]2[C@@H](O)C[C@@]2(C)[C@H]1CC[C@]2(O)C(=O)CO` [prednisolone, reference compound], in the assay on BALB/c male mice [2], the “Eosinophil numbers in bronchoalveolar lavage fluid” value is reported as 0.76±0.25 ×10^5 per mouse and the “eosinophil numbers decreased as compared with the positive control group” value was 73%. For the same molecule, in the assay on BALB/c male mice [3], the “airway hyperreactivity suppressed as compared with the positive control group” value turned out to be 43% and the “AUC of airway hyperreactivity” value was found to be 269.12±46.7.
